Source: ChEMBL document CHEMBL4354870, “GSK2818713, a Novel Biphenylene Scaffold-Based Hepatitis C NS5A Replication Complex Inhibitor with Broad Genotype Coverage” (J Med Chem, 2020)
Calls of active or inactive are those of the source. The rule behind the calls is not given here.

Experiments:
[1] = target: T1, Nonstructural protein 5A (Hepatitis C virus) (UniProt Q5L478); test: Potency index, ratio of EC50 of cpd1 to EC50 of compound for inhibition of HCV genotype 2a con NS5A infected in HuH-Lcu-Neo cells assessed as reduction in viral replication incubated for 48 hrs by luciferase reporter gene assay; type: cell-based; conditions: Hepatitis C virus subtype 2a
T1 sequence (whole entry): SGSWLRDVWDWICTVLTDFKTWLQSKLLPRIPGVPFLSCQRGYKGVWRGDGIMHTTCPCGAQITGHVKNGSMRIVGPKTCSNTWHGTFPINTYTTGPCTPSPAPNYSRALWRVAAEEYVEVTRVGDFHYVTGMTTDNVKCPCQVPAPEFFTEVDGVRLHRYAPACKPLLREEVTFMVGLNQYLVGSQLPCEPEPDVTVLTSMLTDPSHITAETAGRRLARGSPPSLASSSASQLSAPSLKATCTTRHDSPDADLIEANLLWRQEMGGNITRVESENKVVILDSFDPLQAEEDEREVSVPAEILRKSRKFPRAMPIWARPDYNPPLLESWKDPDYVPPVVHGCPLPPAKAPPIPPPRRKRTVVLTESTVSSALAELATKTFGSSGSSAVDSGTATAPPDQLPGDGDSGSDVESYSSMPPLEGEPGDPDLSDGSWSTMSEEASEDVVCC

[2] = Half life in Han Wistar rat at 5 mg/kg, po by LC-MS/MS analysis; type: ADME, organism-based; conditions: in vivo
[3] = Cmax in Han Wistar rat at 5 mg/kg, po by LC-MS/MS analysis; type: ADME, organism-based; set-up: dose 5 mg/kg, route oral; conditions: in vivo
[4] = Tmax in Han Wistar rat at 5 mg/kg, po by LC-MS/MS analysis; type: ADME, organism-based; conditions: in vivo
[5] = AUC (0 to t) in Han Wistar rat at 5 mg/kg, po by LC-MS/MS analysis; type: ADME, organism-based; conditions: in vivo
[6] = AUC (0 to infinity) in Han Wistar rat at 5 mg/kg, po by LC-MS/MS analysis; type: ADME, organism-based; set-up: dose 5 mg/kg, time infinity, route oral; conditions: in vivo
[7] = Oral availability in Han Wistar rat at 5 mg/kg by LC-MS/MS analysis; type: ADME, organism-based; conditions: in vivo
[8] = Clearance in CD1 mouse at 1 mg/kg, iv by LC-MS/MS analysis; type: ADME, organism-based; conditions: in vivo
[9] = Volume of distribution at steady state in CD1 mouse at 1 mg/kg, iv by LC-MS/MS analysis; type: ADME, organism-based; conditions: in vivo, read-out: Vdss
[10] = Half life in CD1 mouse at 1 mg/kg, iv by LC-MS/MS analysis; type: ADME, organism-based; conditions: in vivo
[11] = AUC (0 to t) in CD1 mouse at 1 mg/kg, iv by LC-MS/MS analysis; type: ADME, organism-based; conditions: in vivo
[12] = AUC (0 to infinity) in CD1 mouse at 1 mg/kg, iv by LC-MS/MS analysis; type: ADME, organism-based; set-up: dose 1 mg/kg, time infinity, route intravenous; conditions: in vivo
[13] = Half life in CD1 mouse at 5 mg/kg, po by LC-MS/MS analysis; type: ADME, organism-based; conditions: in vivo
[14] = Cmax in CD1 mouse at 5 mg/kg, po by LC-MS/MS analysis; type: ADME, organism-based; set-up: dose 5 mg/kg, route oral; conditions: in vivo
[15] = Tmax in CD1 mouse at 5 mg/kg, po by LC-MS/MS analysis; type: ADME, organism-based; conditions: in vivo
[16] = AUC (0 to t) in CD1 mouse at 5 mg/kg, po by LC-MS/MS analysis; type: ADME, organism-based; conditions: in vivo
[17] = AUC (0 to infinity) in CD1 mouse at 5 mg/kg, po by LC-MS/MS analysis; type: ADME, organism-based; set-up: dose 5 mg/kg, route oral, time infinity; conditions: in vivo
[18] = Oral bioavailability in CD1 mouse at 5 mg/kg by LC-MS/MS analysis; type: ADME, organism-based; conditions: in vivo
[19] = Clearance in Han Wistar rat at 1 mg/kg, iv by LC-MS/MS analysis; type: ADME, organism-based; conditions: in vivo
[20] = Volume of distribution at steady state in Han Wistar rat at 1 mg/kg, iv by LC-MS/MS analysis; type: ADME, organism-based; conditions: in vivo, read-out: Vdss
[21] = Half life in Han Wistar rat at 1 mg/kg, iv by LC-MS/MS analysis; type: ADME, organism-based; conditions: in vivo
[22] = AUC (0 to t) in Han Wistar rat at 1 mg/kg, iv by LC-MS/MS analysis; type: ADME, organism-based; conditions: in vivo
[23] = AUC (0 to infinity) in Han Wistar rat at 1 mg/kg, iv by LC-MS/MS analysis; type: ADME, organism-based; set-up: dose 1 mg/kg, time infinity, route intravenous; conditions: in vivo
[24] = Clearance in Beagle dog at 1 mg/kg, iv by LC-MS/MS analysis; type: ADME, organism-based, Canis lupus familiaris; conditions: in vivo
[25] = Volume of distribution at steady state in Beagle dog at 1 mg/kg, iv by LC-MS/MS analysis; type: ADME, organism-based, Canis lupus familiaris; conditions: in vivo, read-out: Vdss
[26] = Half life in Beagle dog at 1 mg/kg, iv by LC-MS/MS analysis; type: ADME, organism-based, Canis lupus familiaris; conditions: in vivo
[27] = AUC (0 to t) in Beagle dog at 1 mg/kg, iv by LC-MS/MS analysis; type: ADME, organism-based, Canis lupus familiaris; conditions: in vivo
[28] = AUC (0 to infinity) in Beagle dog at 1 mg/kg, iv by LC-MS/MS analysis; type: ADME, organism-based, Canis lupus familiaris; set-up: dose 1 mg/kg, route intravenous, time infinity; conditions: in vivo
[29] = Half life in Beagle dog at 1 mg/kg, po by LC-MS/MS analysis; type: ADME, organism-based, Canis lupus familiaris; conditions: in vivo
[30] = Cmax in Beagle dog at 1 mg/kg, po by LC-MS/MS analysis; type: ADME, organism-based, Canis lupus familiaris; set-up: dose 1 mg/kg, route oral; conditions: in vivo
[31] = Tmax in Beagle dog at 1 mg/kg, po by LC-MS/MS analysis; type: ADME, organism-based, Canis lupus familiaris; conditions: in vivo
[32] = AUC (0 to t) in Beagle dog at 1 mg/kg, po by LC-MS/MS analysis; type: ADME, organism-based, Canis lupus familiaris; conditions: in vivo
[33] = AUC (0 to infinity) in Beagle dog at 1 mg/kg, po by LC-MS/MS analysis; type: ADME, organism-based, Canis lupus familiaris; set-up: dose 1 mg/kg, route oral, time infinity; conditions: in vivo
[34] = Oral bioavailability in Beagle dog at 1 mg/kg by LC-MS/MS analysis; type: ADME, organism-based, Canis lupus familiaris; conditions: in vivo
[35] = target: T1, Nonstructural protein 5A (Hepatitis C virus); test: Potency index, ratio of EC50 of DCV to EC50 of compound for inhibition of HCV genotype 2a con NS5A infected in HuH-Lcu-Neo cells assessed as reduction in viral replication incubated for 48 hrs by luciferase reporter gene assay; type: cell-based; conditions: Hepatitis C virus subtype 2a
[36] = target: T1, Nonstructural protein 5A (Hepatitis C virus); test: Potency index, ratio of EC50 of DCV to EC50 of compound for inhibition of patient-derived HCV genotype 2a NS5A infected in HuH-Lcu-Neo cells assessed as reduction in viral replication incubated for 48 hrs by luciferase reporter gene assay; type: cell-based; conditions: Hepatitis C virus subtype 2a
[37] = target: T1, Nonstructural protein 5A (Hepatitis C virus); test: Potency index, ratio of EC50 of DCV to EC50 of compound for inhibition of HCV genotype 3a con NS5A infected in HuH-Lcu-Neo cells assessed as reduction in viral replication incubated for 48 hrs by luciferase reporter gene assay; type: cell-based; conditions: Hepatitis C virus subtype 3a
[38] = target: T1, Nonstructural protein 5A (Hepatitis C virus); test: Potency index, ratio of EC50 of DCV to EC50 of compound for inhibition of patient-derived HCV genotype 3a NS5A infected in HuH-Lcu-Neo cells assessed as reduction in viral replication incubated for 48 hrs by luciferase reporter gene assay; type: cell-based; conditions: Hepatitis C virus subtype 3a
[39] = target: T1, Nonstructural protein 5A (Hepatitis C virus); test: Inhibition of HCV genotype 1a NS5A infected in HuH-Lcu-Neo cells assessed as log reduction in virus RNA level at 10 times of EC90 incubated for 21 days by luciferase reporter gene assay; type: cell-based; conditions: Hepatitis C virus subtype 1a
[40] = target: T1, Nonstructural protein 5A (Hepatitis C virus); test: Inhibition of HCV genotype 1b NS5A infected in HuH-Lcu-Neo cells assessed as log reduction in virus RNA level at 10 times of EC90 incubated for 21 days by luciferase reporter gene assay; type: cell-based; conditions: Hepatitis C virus subtype 1b
[41] = target: T1, Nonstructural protein 5A (Hepatitis C virus); test: Inhibition of HCV genotype 2a con NS5A infected in HuH-Lcu-Neo cells assessed as fold reduction in virus RNA level at 10 times of EC90 incubated for 21 days by luciferase reporter gene assay; type: cell-based; conditions: Hepatitis C virus subtype 2a
[42] = target: T1, Nonstructural protein 5A (Hepatitis C virus); test: Inhibition of HCV genotype 3a con NS5A infected in HuH-Lcu-Neo cells assessed as fold reduction in virus RNA level at 10 times of EC90 incubated for 21 days by luciferase reporter gene assay; type: cell-based; conditions: Hepatitis C virus subtype 3a
[43] = target: T1, Nonstructural protein 5A (Hepatitis C virus); test: Inhibition of HCV NS5A infected in HuH-Lcu-Neo cells assessed as reduction in viral replication in presence of ribavirin incubated for 48 hrs by luciferase reporter gene assay; type: cell-based; conditions: Hepacivirus hominis
[44] = target: T1, Nonstructural protein 5A (Hepatitis C virus); test: Inhibition of HCV NS5A infected in HuH-Lcu-Neo cells assessed as reduction in viral replication in presence of BILN2061 incubated for 48 hrs by luciferase reporter gene assay; type: cell-based; conditions: Hepacivirus hominis
[45] = target: T1, Nonstructural protein 5A (Hepatitis C virus); test: Inhibition of HCV NS5A infected in HuH-Lcu-Neo cells assessed as reduction in viral replication in presence of NM107 incubated for 48 hrs by luciferase reporter gene assay; type: cell-based; conditions: Hepacivirus hominis
[46] = target: T1, Nonstructural protein 5A (Hepatitis C virus); test: Inhibition of HCV NS5A infected in HuH-Lcu-Neo cells assessed as reduction in viral replication in presence of NNI incubated for 48 hrs by luciferase reporter gene assay; type: cell-based; conditions: Hepacivirus hominis

## CN(C)[C@@H](C(=O)N1CCC[C@H]1c1ncc(-c2ccc3c(c2)-c2ccc(-c4cnc([C@@H]5CCCN5C(=O)[C@@H](c5ccccc5)N(C)C)[nH]4)cc2-3)[nH]1)c1ccccc1
[1]
  Ratio EC50: 98

## COC(=O)N[C@H](C(=O)N1[C@H](c2ncc(-c3ccc4c(c3)-c3ccc(-c5cnc([C@@H]6C[C@@H]7CCC[C@@H]7N6C(=O)[C@@H](NC(=O)OC)[C@@H](C)OC)[nH]5)cc3-4)[nH]2)C[C@@H]2CCC[C@@H]21)[C@@H](C)OC.Cl
[2]
  half-life: 1.7 h
[3]
  Cmax: 258 ng/mL
[4]
  Tmax: 1.5 h
[5]
  AUC(0-t): 1250 ng·h/mL
[6]
  AUC(0-inf): 1260 ng·h/mL
[7]
  bioavailability: 41%

## COC(=O)N[C@H](C(=O)N1CCC[C@H]1c1ncc(-c2ccc3c(c2)-c2ccc(-c4cnc([C@@H]5CCCN5C(=O)[C@@H](c5ccccc5)N(C)C)[nH]4)cc2-3)[nH]1)C(C)C
[1]
  Ratio EC50: 22

## COC(=O)N[C@H](C(=O)N1[C@H](c2ncc(-c3ccc4c(c3)-c3ccc(-c5cnc([C@@H]6C[C@@H]7CCC[C@@H]7N6C(=O)[C@@H](NC(=O)OC)[C@@H](C)OC)[nH]5)cc3-4)[nH]2)C[C@@H]2CCC[C@@H]21)[C@@H](C)OC [listing 1 of 2 here]
[8]
  clearance: 15.4 mL/min/kg
[9]
  Vd: 1.3 L/kg
[10]
  half-life: 1.7 h
[11]
  AUC(0-t): 1070 ng·h/mL
[12]
  AUC(0-inf): 1100 ng·h/mL
[13]
  half-life: 1.7 h
[14]
  Cmax: 506 ng/mL
[15]
  Tmax: 2 h
[16]
  AUC(0-t): 2490 ng·h/mL
[17]
  AUC(0-inf): 2550 ng·h/mL
[18]
  bioavailability: 46%
[19]
  clearance: 33.8 mL/min/kg
[20]
  Vd: 1.3 L/kg
[21]
  half-life: 1.5 h
[22]
  AUC(0-t): 498 ng·h/mL
[23]
  AUC(0-inf): 501 ng·h/mL
[2]
  half-life: 4.8 h
[3]
  Cmax: 32 ng/mL
[4]
  Tmax: 2 h
[5]
  AUC(0-t): 178 ng·h/mL
[6]
  AUC(0-inf): 216 ng·h/mL
[7]
  bioavailability: 9%
[24]
  clearance: 5.3 mL/min/kg
[25]
  Vd: 1 L/kg
[26]
  half-life: 5.2 h
[27]
  AUC(0-t): 3140 ng·h/mL
[28]
  AUC(0-inf): 3180 ng·h/mL
[29]
  half-life: 6 h
[30]
  Cmax: 99 ng/mL
[31]
  Tmax: 4 h
[32]
  AUC(0-t): 593 ng·h/mL
[33]
  AUC(0-inf): 633 ng·h/mL
[34]
  bioavailability: 20%

## COC(=O)N[C@H](C(=O)N1[C@H](c2ncc(-c3ccc4c(c3)-c3ccc(-c5cnc([C@@H]6C[C@@H]7CCC[C@@H]7N6C(=O)[C@@H](NC(=O)OC)[C@@H](C)OC)[nH]5)cc3-4)[nH]2)C[C@@H]2CCC[C@@H]21)[C@@H](C)OC [listing 2 of 2 here]
[35]
  Ratio EC50: 462
[36]
  Ratio EC50: 74
[37]
  Ratio EC50: 20
[38]
  Ratio EC50: 37
[39]
  FC: 1.8 to 3.1
[40]
  FC: > 5
[41]
  fold change (FC): 1.8 to 3.1
[42]
  fold change (FC): 1.8 to 3.1
[43]
  inhibition: inactive
[44]
  inhibition: inactive
[45]
  inhibition: inactive
[46]
  inhibition: inactive
